Data published in patent US20240083853A1, “HSD17B13 INHIBITORS AND USES THEREOF” (FL2022-001, Inc., priority 2020, published 2024).
Where a name gives a salt, the structure may show the parent alone.

Target: T1, Recombinant human HSD17B13 enzyme (Homo sapiens, UniProt Q7Z5P4)
T1 sequence (Q7Z5P4 20-300): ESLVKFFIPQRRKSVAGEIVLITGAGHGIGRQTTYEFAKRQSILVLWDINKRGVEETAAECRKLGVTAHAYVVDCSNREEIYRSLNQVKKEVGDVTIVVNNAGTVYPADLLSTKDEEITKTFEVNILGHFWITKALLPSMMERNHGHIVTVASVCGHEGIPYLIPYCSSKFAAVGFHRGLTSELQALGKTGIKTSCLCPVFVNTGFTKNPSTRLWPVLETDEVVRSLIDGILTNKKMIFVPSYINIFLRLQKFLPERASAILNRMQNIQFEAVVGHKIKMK
Assay: HSD17b13 NAD(P)H-Glo biochemical assay
Conditions: 50 uM estradiol, 1 mM NAD+, NAD(P)H-Glo luminescence; read-out: HSD17β13 IC50
Summary of the method: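 Recombinant human HSD17B13 in 20 mM Tris pH7.4 with 0.002% Tween-20 and 0.02% BSA was preincubated with inhibitor for 20 minutes at RT. The reaction ran 3 hours at 37° C with 50 uM estradiol and 1 mM NAD+ (final). NADH formed was detected by NAD(P)H-Glo luminescence after 1 hour at RT.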

Compared with `CS(=O)(=O)N1CCN(c2ccc(-n3ncc4cc(F)c(O)c(Cl)c43)cc2)CC1` [Compound 25, 7-Chloro-5-fluoro-1-(4-(4-(methylsulfonyl)piperazin-1-yl)phenyl)-1H-indazol-6-ol], `CS(=O)(=O)N1CCN(c2ccc(-n3ncc4cc(F)c(O)cc43)cc2)CC1` [Compound 21.2, 5-Fluoro-1-(4-(4-(methylsulfonyl)piperazin-1-yl)phenyl)-1H-indazol-6-ol] is higher in IC50: 100 to 1000 nM for the first, 1000 to 30000 nM for the second.

`Oc1cccc(-c2ccc(-n3ncc4cc(F)c(O)cc43)cc2)c1` [Compound 2, 5-Fluoro-1-(3′-hydroxy-[1,1′-biphenyl]-4-yl)-1H-indazol-6-ol] and `Cc1cccc(-c2ccc(-n3ncc4cc(F)c(O)cc43)cc2)c1` [Compound 13.10, 5-Fluoro-1-(3′-methyl-[1,1′-biphenyl]-4-yl)-1H-indazol-6-ol] fall in the same range of IC50: 100 to 1000 nM for the first, 100 to 1000 nM for the second.

First: OCc1ccc(-c2ccc(-n3ncc4cc(F)c(O)cc43)cc2)cc1 [Compound 13.23, 5-Fluoro-1-(4′-(hydroxymethyl)-[1,1′-biphenyl]-4-yl)-1H-indazol-6-ol]
Second: Nc1cccc(-c2ccc(-n3ncc4cc(F)c(O)cc43)cc2)c1 [Compound 13.27, 1-(3′-Amino-[1,1′-biphenyl]-4-yl)-5-fluoro-1H-indazol-6-ol]
The IC50 of the first is lower: 100 to 1000 nM for the first, 1000 to 30000 nM for the second. The first is the more potent here.

Compared with `Oc1c(F)cc2nnn(-c3ccc(N4CCO[C@H](c5ccccc5)C4)cc3)c2c1F` [Compound 26.27, (R)-5,7-Difluoro-1-(4-(2-phenylmorpholino)phenyl)-1H-benzo[d][1,2,3]triazol-6-ol], `Oc1c(F)cc2nnn(-c3ccc(N4CC5(CCOCC5)C4)cc3)c2c1F` [Compound 20.10, 1-(4-(7-Oxa-2-azaspiro[3.5]nonan-2-yl)phenyl)-5,7-difluoro-1H-benzo[d][1,2,3]triazol-6-ol] is lower in IC50: 100 to 1000 nM for the first, less than 100 nM for the second.

Compared with `CC1CCN(c2ccc(-n3ncc4cc(F)c(O)c(F)c43)cc2)CC1` [Compound 23.18, 5,7-Difluoro-1-(4-(4-methylpiperidin-1-yl)phenyl)-1H-indazol-6-ol], `Oc1c(F)cc2cnn(-c3ccc(N4CCC4)cc3)c2c1F` [Compound 23.12, 1-(4-(Azetidin-1-yl)phenyl)-5,7-difluoro-1H-indazol-6-ol] is higher in IC50: less than 100 nM for the first, 100 to 1000 nM for the second.

First: Oc1ccc(-c2ccc(-n3ncc4c(F)cc(O)cc43)cc2)cc1 [Compound 2.7, 4-Fluoro-1-(4′-hydroxy-[1,1′-biphenyl]-4-yl)-1H-indazol-6-ol]
Second: Oc1ccc(-c2ccc(-n3nnc4cc(F)c(O)cc43)cc2)cc1 [Compound 10, 5-Fluoro-1-(4′-hydroxy-[1,1′-biphenyl]-4-yl)-1H-benzo[d][1,2,3]triazol-6-ol]
The IC50 of the first is higher: 100 to 1000 nM for the first, less than 100 nM for the second. The second is the more potent here.

`CC1(C)CC=C(c2ccc(-n3ncc4cc(F)c(O)c(F)c43)cc2)CC1` [Compound 27.2, 1-(4′,4′-Dimethyl-2′,3′,4′,5′-tetrahydro-[1,1′-biphenyl]-4-yl)-5,7-difluoro-1H-indazol-6-ol] and `Oc1c(F)cc2cnn(-c3ccc(-c4ccncc4)cc3)c2c1F` [Compound 14.4, 5,7-Difluoro-1-(4-(pyridin-4-yl)phenyl)-1H-indazol-6-ol] cannot be ordered by IC50: less than 100 nM for the first, less than 100 nM for the second.

`CS(=O)(=O)N1CCC(c2ccc(-n3nnc4cc(F)c(O)c(F)c43)cc2)CC1` [Compound 27.9, 5,7-Difluoro-1-(4-(1-(methylsulfonyl)piperidin-4-yl)phenyl)-1H-benzo[d][1,2,3]triazol-6-ol] and `CS(=O)(=O)N1CCCC(c2ccc(-n3ncc4cc(F)c(O)c(F)c43)cc2)C1` (stereo not shown) [Compound 30.1, 5,7-Difluoro-1-(4-(1-(methylsulfonyl)piperidin-3-yl)phenyl)-1H-indazol-6-ol] cannot be ordered by IC50: less than 100 nM for the first, less than 100 nM for the second.

`Oc1cccc(-c2ccc(-n3ncc4c(F)cc(O)c(F)c43)cc2)c1` [Compound 16, 4,7-Difluoro-1-(3′-hydroxy-[1,1′-biphenyl]-4-yl)-1H-indazol-6-ol] and `Oc1cccc(-c2ccc(-n3ncc4c(Cl)c(F)c(O)cc43)cc2)c1` [Compound 5, 4-Chloro-5-fluoro-1-(3′-hydroxy-[1,1′-biphenyl]-4-yl)-1H-indazol-6-ol] fall in the same range of IC50: 100 to 1000 nM for the first, 100 to 1000 nM for the second.

`N#Cc1ccccc1-c1ccc(-n2ncc3cc(F)c(O)cc32)cc1` [Compound 13.16, 4′-(5-Fluoro-6-hydroxy-1H-indazol-1-yl)-[1,1′-biphenyl]-2-carbonitrile] and `CS(=O)(=O)c1cccc(-c2ccc(-n3ncc4cc(F)c(O)cc43)cc2)c1` [Compound 13.25, 5-Fluoro-1-(3′-(methylsulfonyl)-[1,1′-biphenyl]-4-yl)-1H-indazol-6-ol] fall in the same range of IC50: 100 to 1000 nM for the first, 100 to 1000 nM for the second.

`CC1(C)CCN(c2ccc(-n3ncc4cc(F)c(O)c(F)c43)cn2)CC1` [Compound 26, 1-(6-(4,4-Dimethylpiperidin-1-yl)pyridin-3-yl)-5,7-difluoro-1H-indazol-6-ol] and `CC1(C)CCN(c2cnc(-n3nnc4cc(F)c(O)c(F)c43)cn2)CC1` [Compound 26.17, 1-(5-(4,4-Dimethylpiperidin-1-yl)pyrazin-2-yl)-5,7-difluoro-1H-benzo[d][1,2,3]triazol-6-ol] cannot be ordered by IC50: less than 100 nM for the first, less than 100 nM for the second.

`Oc1cccc(-c2ccc(-n3ncc4cc(F)c(O)c(Cl)c43)cc2)c1` [Compound 17, 7-Chloro-5-fluoro-1-(3′-hydroxy-[1,1′-biphenyl]-4-yl)-1H-indazol-6-ol] and `Cc1c(O)c(F)cc2cnn(-c3ccc(-c4cccc(O)c4)cc3)c12` [Compound 4.3, 5-Fluoro-1-(3′-hydroxy-[1,1′-biphenyl]-4-yl)-7-methyl-1H-indazol-6-ol] fall in the same range of IC50: 100 to 1000 nM for the first, 100 to 1000 nM for the second.

`CC1(C)CN(S(C)(=O)=O)CCN1c1ccc(-n2ncc3cc(F)c(O)c(F)c32)cc1` [Compound 23.6, 1-(4-(2,2-Dimethyl-4-(methylsulfonyl)piperazin-1-yl)phenyl)-5,7-difluoro-1H-indazol-6-ol] and `CS(=O)(=O)C1CN(c2ccc(-n3ncc4cc(F)c(O)c(F)c43)cc2)C1` [Compound 22.1, 5,7-Difluoro-1-(4-(3-(methylsulfonyl)azetidin-1-yl)phenyl)-1H-indazol-6-ol] fall in the same range of IC50: 100 to 1000 nM for the first, 100 to 1000 nM for the second.

First: Oc1ccc(-c2ccc(-n3cnc4cc(F)c(O)cc43)cc2)cc1 [Compound 9, 5-Fluoro-1-(4′-hydroxy-[1,1′-biphenyl]-4-yl)-1H-benzo[d]imidazol-6-ol]
Second: Oc1ccc(-c2ccc(-n3ncc4ccc(O)c(F)c43)cc2)cc1 [Compound 2.4, 7-Fluoro-1-(4′-hydroxy-[1,1′-biphenyl]-4-yl)-1H-indazol-6-ol]
The IC50 of the first is lower: less than 100 nM for the first, 100 to 1000 nM for the second.

`CC1CN(c2ccc(-n3ncc4cc(F)c(O)c(F)c43)cc2)CCO1` (stereo not shown) [Compound 20.4, 5,7-Difluoro-1-(4-(2-methylmorpholino)phenyl)-1H-indazol-6-ol] and `COC1(C)CN(c2ccc(-n3ncc4cc(F)c(O)c(F)c43)cc2)C1` [Compound 20.19, 5,7-Difluoro-1-(4-(3-methoxy-3-methylazetidin-1-yl)phenyl)-1H-indazol-6-ol] cannot be ordered by IC50: less than 100 nM for the first, less than 100 nM for the second.

`CS(=O)(=O)N1CCN(c2ccc(-n3ncc4c(Cl)c(F)c(O)cc43)cc2)CC1` [Compound 5.1, 4-Chloro-5-fluoro-1-(4-(4-(methylsulfonyl)piperazin-1-yl)phenyl)-1H-indazol-6-ol] and `CS(=O)(=O)N1CCN(c2ccc(-n3ncc4ccc(O)c(F)c43)cc2)CC1` [Compound 21.11, 7-Fluoro-1-(4-(4-(methylsulfonyl)piperazin-1-yl)phenyl)-1H-indazol-6-ol] fall in the same range of IC50: 100 to 1000 nM for the first, 100 to 1000 nM for the second.

`Oc1c(F)cc2cnn(-c3ccc(N4CCC5(CCO5)CC4)cc3)c2c1F` [Compound 26.1, 1-(4-(1-Oxa-7-azaspiro[3.5]nonan-7-yl)phenyl)-5,7-difluoro-1H-indazol-6-ol] and `CS(=O)(=O)NC1CCN(c2ccc(-n3ncc4cc(F)c(O)c(F)c43)cc2)CC1` [Compound 23.17, N-(1-(4-(5,7-Difluoro-6-hydroxy-1H-indazol-1-yl)phenyl)piperidin-4-yl)methanesulfonamide] fall in the same range of IC50: 100 to 1000 nM for the first, 100 to 1000 nM for the second.

First: CS(=O)(=O)Nc1cccc(-c2ccc(-n3ncc4cc(F)c(O)cc43)cc2)c1 [Compound 13.33, N-(4′-(5-Fluoro-6-hydroxy-1H-indazol-1-yl)-[1,1′-biphenyl]-3-yl)methanesulfonamide]
Second: Oc1c(F)cc2cnn(-c3ccc(-c4ccc(Cl)cc4)cn3)c2c1F [Compound 18.3, 1-(5-(4-Chlorophenyl)pyridin-2-yl)-5,7-difluoro-1H-indazol-6-ol]
The IC50 of the first is higher: 1000 to 30000 nM for the first, less than 100 nM for the second.

First: CCN1CCC(c2ccc(-n3ncc4cc(F)c(O)c(F)c43)cc2)CC1 [Compound 29, 1-(4-(1-Ethylpiperidin-4-yl)phenyl)-5,7-difluoro-1H-indazol-6-ol TFA salt]
Second: CCn1c(=O)n(-c2ccc(N3CCC(C)(C)CC3)cc2)c2c(F)c(O)c(F)cc21 [Compound 12, 3-(4-(4,4-Dimethylpiperidin-1-yl)phenyl)-1-ethyl-4,6-difluoro-5-hydroxy-1H-benzo[d]imidazol-2(3H)-one]
The IC50 of the first is lower: less than 100 nM for the first, 100 to 1000 nM for the second. The first is the more potent here.

With `CC1(C)CCN(c2ncc(-n3nnc4cc(F)c(O)c(F)c43)cn2)CC1` [Compound 42, 1-(2-(4,4-Dimethylpiperidin-1-yl)pyrimidin-5-yl)-5,7-difluoro-1H-benzo[d][1,2,3]triazol-6-ol] the IC50 was less than 100 nM.

Same assay, conditions: 3 h; at 10 uM compound; read-out: HSD17β13 % at 10 uM

In the case of `Cc1c(O)c(F)cc2cnn(-c3ccc(N4CCN(S(C)(=O)=O)CC4)cc3)c12` [Compound 24.12, 5-Fluoro-7-methyl-1-(4-(4-(methylsulfonyl)piperazin-1-yl)phenyl)-1H-indazol-6-ol], the inhibition at 10 µM is reported as 35%.
